In US9884063B2, “Amido-substituted azole compounds” (Bayer Pharma Aktiengesellschaft, priority 2014, dated 2018):

Tested on: wildtype Wnt signaling cascade
Assay: HEK293 TOP Assay (Super TopFlash luciferase reporter, Wnt-3a stimulated)
Format: cell-based
Conditions: Homo sapiens, HEK293, 16 h
How it was run: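 HEK293 cells stably carrying Super TopFlash (TOP) or FOP reporter, stimulated with recombinant human Wnt-3a (2500–5 ng/ml, two-fold steps). Both lines incubated in parallel with compound from 50 μM to 15 nM (3.16-fold) in CAFTY buffer pH 7.4 with 2 mM Ca2+ and 0.01% BSA; selectivity judged TOP vs FOP.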

[1] = HEK293 TOP reporter cell line, Wnt-3a at EC50, 16 hours incubation, compound dilution series 50 μM to 15 nM
[2] = HEK293 TOP reporter cells, Wnt3a at EC50, 16 hours, luciferase

IC50 [1] [µM] | IC50 [2] [µM] | Structure (SMILES)
0.41 | 0.34 | O=C(Nc1ccc(NC(=O)c2[nH]cnc2C(=O)NCc2ccccc2)cc1)c1ccc(F)cc1Cl [Example 18, N^4-benzyl-N^5-{4-[(2-chloro-4-fluorobenzoyl)amino]phenyl}-1H-imidazole-4,5-dicarboxamide]
4.6 | 4.6 | CC(NC(=O)c1ncoc1C(=O)Nc1ccc(NC(=O)c2ccc(F)cc2Cl)cc1)c1ccccc1 (centres unmarked) [Example 8, N^5-{4-[(2-chloro-4-fluorobenzoyl)amino]phenyl}-N^4-(1-phenylethyl)-1,3-oxazole-4,5-dicarboxamide]
9.7 | 9.7 | CNC(=O)c1nc[nH]c1C(=O)Nc1ccc(NC(=O)c2ccc(N3CCCC3)cc2F)cc1 [Example 3, N^5-(4-{[2-fluoro-4-(pyrrolidin-1-yl)benzoyl]amino}phenyl)-N^4-methyl-1H-imidazole-4,5-dicarboxamide]
0.46 |  | CNC(=O)c1[nH]cnc1C(=O)Nc1ccc(NC(=O)c2cc(Cl)sc2Cl)cc1 [Example 213, N^4-(4-{[(2,5-dichloro-3-thienyl)carbonyl]amino}phenyl)-N^5-methyl-1H-imidazole-4,5-dicarboxamide]
3.55 | 3.55 | CNC(=O)c1nc[nH]c1C(=O)Nc1ccc(NC(=O)c2c(-c3ccccc3)nn(C)c2Cl)cc1 [Example 17, N^5-(4-{[(5-chloro-1-methyl-3-phenyl-1H-pyrazol-4-yl)carbonyl]amino}phenyl)-N^4-methyl-1H-imidazole-4,5-dicarboxamide]
5.65 | 5.65 | CCC(C)NC(=O)c1ncoc1C(=O)Nc1ccc(NC(=O)c2ccc(F)cc2Cl)cc1 (centres unmarked) [Example 7, N^4-sec-butyl-N^5-{4-[(2-chloro-4-fluorobenzoyl)amino]phenyl}-1,3-oxazole-4,5-dicarboxamide]
9.35 | 11.5 | COC(=O)c1ncoc1C(=O)Nc1ccc(NC(=O)c2ccc(F)cc2Cl)cc1 [Example 14, Methyl 5-({4-[(2-chloro-4-fluorobenzoyl)amino]phenyl}carbamoyl)-1,3-oxazole-4-carboxylate]
1.25 | 1.25 | CC(C)NC(=O)c1ncoc1C(=O)Nc1ccc(NC(=O)c2ccc(F)cc2Cl)cc1 [Example 15, N^5-{4-[(2-chloro-4-fluorobenzoyl)amino]phenyl}-N^4-isopropyl-1,3-oxazole-4,5-dicarboxamide]
0.66 | 0.66 | CNC(=O)c1nc[nH]c1C(=O)Nc1ccc(NC(=O)c2c(C)cc(F)cc2C)cc1 [Example 23, N^5-{4-[(4-fluoro-2,6-dimethylbenzoyl)amino]phenyl}-N^4-methyl-1H-imidazole-4,5-dicarboxamide]
